Data reported in patent US20100249093A1, “Substituted Heteroarylpiperidine Derivatives As Melanocortin-4 Receptor Modulators” (SANTHERA PHARMACEUTICALS (SCHWEIZ) AG, priority 2007, published 2010).

Experiments:
[1] = biological target: T1, human melanocortin-4 receptor (MC-4R) (Homo sapiens, UniProt P32245); experiment: Membrane binding assay: competition with fluorescence labeled NDP-alpha-MSH, fluorescence polarization; details: HEK293 cell membrane preparations expressing human MC-4R, read-out: hMC-4R binding assay IC50
T1 construct: expressed in transfected cells; host or cells: HEK293
T1 sequence (P32245 whole entry): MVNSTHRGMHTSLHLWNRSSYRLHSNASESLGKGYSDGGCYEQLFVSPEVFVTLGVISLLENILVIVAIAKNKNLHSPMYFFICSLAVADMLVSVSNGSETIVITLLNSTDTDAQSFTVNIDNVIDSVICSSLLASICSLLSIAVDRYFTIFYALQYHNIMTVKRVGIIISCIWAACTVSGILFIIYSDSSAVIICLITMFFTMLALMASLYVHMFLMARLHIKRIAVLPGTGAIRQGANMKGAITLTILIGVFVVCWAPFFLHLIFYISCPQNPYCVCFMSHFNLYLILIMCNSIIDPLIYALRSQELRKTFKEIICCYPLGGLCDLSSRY

[2] = biological target: T1, human melanocortin-4 receptor (MC-4R); experiment: Functional assay: agonistic activity, cAMP production in membrane preparations compared with NDP-alpha-MSH, fluorescence polarization; assay type: biochemical; details: for Emax: cAMP produced compared to stimulation with NDP-alpha-MSH, read-out: % activation functional assay

Structure (SMILES)	IC50 [1] [nM]	Emax [2] [%]	EC50 ([2]; cAMP production, membrane preparations from HEK293 cells expressing human MC-4R, read-out: hMC-4R functional assay EC50) [nM]
CC[C@@H](CN(C)C)Oc1cccnc1C1CCN(C(=O)[C@@H](Cc2ccc(Cl)cc2Cl)NC(=O)N2CC[C@@H](O)C2)CC1 [Example 139]	≤ 100	-10	
COCCN(C)C(=O)N[C@H](Cc1ccc(Cl)cc1Cl)C(=O)N1CCC(c2ncccc2O[C@H]2CCCN(C)C2)CC1 [Example 142]	≤ 100	-32	≤ 100
CN1CCN(Cc2cc(F)cnc2C2CCN(C(=O)[C@@H](Cc3ccc(Cl)cc3Cl)NC(=O)N3CC(O)C3)CC2)CC1 [Example 144]	≤ 100	2	

Results, then the compound that gave them:

IC50 [1] [nM]	Emax [2] [%]	EC50 ([2]; cAMP production, membrane preparations from HEK293 cells expressing human MC-4R, read-out: hMC-4R functional assay EC50) [nM]	Structure (SMILES)
≤ 100	-3		CN1CCC[C@H](Oc2cccnc2C2CCN(C(=O)[C@@H](Cc3ccc(Cl)cc3Cl)NC(=O)N3CC[C@H](O)C3)CC2)C1 [Example 141]
≤ 100	-1		CN1CCC[C@H](Oc2cccnc2C2CCN(C(=O)[C@@H](Cc3ccc(Cl)cc3Cl)NC(=O)N3CC[C@@H](O)C3)CC2)C1 [Example 143]
